Data from ChEMBL document CHEMBL3997829, “Discovery of novel substituted octahydropyrrolo[3,4-c]pyrroles as dual orexin receptor antagonists for insomnia treatment” (Bioorg Med Chem Lett, 2017).
≈ marks a conversion by molar mass, not a printed value.

Experiments:
[1] = target: T1, Orexin/Hypocretin receptor type 1 (Homo sapiens, UniProt O43613); assay: Antagonist activity at human orexin 1 receptor expressed in HEK293 cells assessed as inhibition of orexin-induced calcium mobilization after 60 mins by FLIPR assay; format: functional, cell-based
T1 sequence (O43613 whole entry): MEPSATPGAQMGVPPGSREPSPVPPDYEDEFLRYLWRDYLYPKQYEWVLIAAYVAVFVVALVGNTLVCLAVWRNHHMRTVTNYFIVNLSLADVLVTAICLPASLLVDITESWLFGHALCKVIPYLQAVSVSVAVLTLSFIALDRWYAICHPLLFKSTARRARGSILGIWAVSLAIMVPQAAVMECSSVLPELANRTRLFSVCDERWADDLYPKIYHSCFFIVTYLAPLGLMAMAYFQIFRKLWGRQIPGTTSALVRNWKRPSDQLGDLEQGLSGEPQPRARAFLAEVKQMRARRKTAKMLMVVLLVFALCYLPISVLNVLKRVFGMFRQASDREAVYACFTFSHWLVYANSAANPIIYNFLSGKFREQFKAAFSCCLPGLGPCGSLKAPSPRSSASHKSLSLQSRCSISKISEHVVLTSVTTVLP

Orexin receptor type 2 = target: T2, Orexin receptor type 2 (Homo sapiens, UniProt O43614); assay: Antagonist activity at human orexin 2 receptor expressed in HEK293 cells assessed as inhibition of orexin-induced calcium mobilization after 60 mins by FLIPR assay; format: functional, cell-based
T2 sequence (O43614 whole entry): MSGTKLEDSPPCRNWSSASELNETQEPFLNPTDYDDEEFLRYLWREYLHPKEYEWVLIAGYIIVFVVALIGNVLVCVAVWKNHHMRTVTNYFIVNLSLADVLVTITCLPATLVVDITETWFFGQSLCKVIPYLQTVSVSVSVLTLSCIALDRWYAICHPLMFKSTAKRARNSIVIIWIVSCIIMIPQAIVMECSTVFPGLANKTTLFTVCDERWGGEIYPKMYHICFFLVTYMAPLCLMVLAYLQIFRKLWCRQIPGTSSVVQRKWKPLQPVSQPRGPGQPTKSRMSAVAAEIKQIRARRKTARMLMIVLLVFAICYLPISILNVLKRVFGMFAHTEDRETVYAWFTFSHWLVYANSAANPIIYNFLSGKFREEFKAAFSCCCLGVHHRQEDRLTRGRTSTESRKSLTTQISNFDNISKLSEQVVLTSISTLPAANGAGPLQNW

[2] = target: Voltage-gated inwardly rectifying potassium channel KCNH2 (Homo sapiens, UniProt Q12809); assay: Inhibition of human ERG
[3] = Thermodynamic solubility of the compound in phosphate buffer at pH 7.4 by HPLC method; format: physicochemical; conditions: read-out: Therm_solubility
[4] = Plasma concentration in Sprague-Dawley rat at 10 mg/kg, po at 0.3 hrs; format: ADME, organism-based
[5] = Plasma concentration in Sprague-Dawley rat at 10 mg/kg, po at 1 hr; format: ADME, organism-based
[6] = Plasma concentration in Sprague-Dawley rat at 10 mg/kg, po at 4 hrs; format: ADME, organism-based
Brain [7] = assay: Drug uptake in Sprague-Dawley rat brain at 10 mg/kg, po at 0.3 hrs; format: ADME, organism-based; conditions: in vivo
Brain [8] = assay: Drug uptake in Sprague-Dawley rat brain at 10 mg/kg, po at 1 hr; format: ADME, organism-based; conditions: in vivo
Brain [9] = assay: Drug uptake in Sprague-Dawley rat brain at 10 mg/kg, po at 4 hrs; format: ADME, organism-based; conditions: in vivo
[10] = Ratio of drug level in brain to plasma in Sprague-Dawley rat at 10 mg/kg, po at 0.5 hrs; format: ADME, organism-based; conditions: read-out: BPR
[11] = Ratio of drug level in brain to plasma in Sprague-Dawley rat at 10 mg/kg, po at 1 hr; format: ADME, organism-based; conditions: read-out: BPR
Rattus norvegicus [12] = assay: Sleep promoting activity in Sprague-Dawley rat assessed as decrease in active wake time at 90 mg/kg, po measured over 2 hrs by electroencephalogram method; format: functional
Rattus norvegicus [13] = assay: Sleep promoting activity in Sprague-Dawley rat assessed as effect on rapid eye movement sleep time at 90 mg/kg, po measured over 2 hrs by electroencephalogram method; format: functional
Rattus norvegicus [14] = assay: Sleep promoting activity in Sprague-Dawley rat assessed as increase in slow wave sleep time at 90 mg/kg, po measured over 2 hrs by electroencephalogram method; format: functional
[15] = Ratio of drug level in brain to plasma in Sprague-Dawley rat at 10 mg/kg, po at 4 hrs; format: ADME, organism-based; conditions: read-out: BPR
[16] = Clearance in Sprague-Dawley rat at 2 mg/kg, iv; format: ADME, organism-based; conditions: in vivo
[17] = Half life in Sprague-Dawley rat at 2 mg/kg, iv; format: ADME, organism-based; conditions: in vivo
[18] = AUC in Sprague-Dawley rat at 15 mg/kg, po; format: ADME, organism-based; conditions: in vivo
[19] = Cmax in Sprague-Dawley rat at 15 mg/kg, po; format: ADME, organism-based; set-up: dose 15 mg/kg, route oral; conditions: in vivo
[20] = Tmax in Sprague-Dawley rat at 15 mg/kg, po; format: ADME, organism-based; conditions: in vivo
[21] = Oral bioavailability in Sprague-Dawley rat at 15 mg/kg; format: ADME, organism-based; conditions: in vivo

Sequence of Voltage-gated inwardly rectifying potassium channel KCNH2 (Q12809 whole entry): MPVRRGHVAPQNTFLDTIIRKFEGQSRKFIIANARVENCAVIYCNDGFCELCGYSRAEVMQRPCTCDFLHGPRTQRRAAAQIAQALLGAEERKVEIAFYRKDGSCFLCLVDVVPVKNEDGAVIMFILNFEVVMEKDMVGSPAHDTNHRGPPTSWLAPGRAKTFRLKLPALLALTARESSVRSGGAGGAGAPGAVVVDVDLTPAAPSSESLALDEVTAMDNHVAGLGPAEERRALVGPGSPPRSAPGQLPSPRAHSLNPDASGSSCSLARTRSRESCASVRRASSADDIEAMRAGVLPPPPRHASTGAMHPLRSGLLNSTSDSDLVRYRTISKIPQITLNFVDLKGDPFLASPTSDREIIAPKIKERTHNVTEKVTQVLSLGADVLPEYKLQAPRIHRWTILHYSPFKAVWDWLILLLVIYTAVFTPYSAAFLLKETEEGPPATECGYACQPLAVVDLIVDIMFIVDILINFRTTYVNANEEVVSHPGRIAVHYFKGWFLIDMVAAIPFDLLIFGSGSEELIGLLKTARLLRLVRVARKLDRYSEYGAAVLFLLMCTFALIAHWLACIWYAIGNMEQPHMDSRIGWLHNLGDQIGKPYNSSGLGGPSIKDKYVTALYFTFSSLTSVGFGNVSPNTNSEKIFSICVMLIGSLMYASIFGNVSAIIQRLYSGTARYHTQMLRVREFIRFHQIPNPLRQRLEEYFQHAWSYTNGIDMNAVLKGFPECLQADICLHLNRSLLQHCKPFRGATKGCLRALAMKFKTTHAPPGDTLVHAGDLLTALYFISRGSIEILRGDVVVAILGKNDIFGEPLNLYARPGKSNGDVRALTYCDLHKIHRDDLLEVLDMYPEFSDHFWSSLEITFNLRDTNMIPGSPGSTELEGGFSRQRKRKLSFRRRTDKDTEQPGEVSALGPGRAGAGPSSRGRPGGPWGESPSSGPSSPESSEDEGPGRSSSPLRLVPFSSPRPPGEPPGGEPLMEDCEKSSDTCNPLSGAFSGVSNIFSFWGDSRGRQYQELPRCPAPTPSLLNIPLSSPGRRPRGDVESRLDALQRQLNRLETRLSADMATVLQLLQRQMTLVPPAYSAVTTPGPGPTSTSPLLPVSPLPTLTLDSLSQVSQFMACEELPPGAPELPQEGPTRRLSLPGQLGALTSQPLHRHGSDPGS

Structure (SMILES)	IC50 [1] [nM]	IC50 (Orexin receptor type 2) [nM]	further results
O=C(c1cc(Cl)ccc1-n1nccn1)N1C[C@@H]2CN(c3nc4cc(Cl)ccc4o3)C[C@@H]2C1	> 10000	1270	
Cc1ccc(-n2nccn2)c(C(=O)N2C[C@@H]3CN(c4nc5cc(OC(F)(F)F)ccc5o4)C[C@@H]3C2)c1	3920	4710	
Cc1ccc(-n2nccn2)c(C(=O)N2C[C@@H]3CN(c4nc5cc(Cl)ccc5s4)C[C@@H]3C2)c1	327	1190	
O=C(c1cc(C(F)(F)F)ccc1-n1nccn1)N1C[C@@H]2CN(c3nc4cc(Cl)ccc4o3)C[C@@H]2C1	5020	1040	
Cc1ccc(-n2nccn2)c(C(=O)N2C[C@@]3(C)CN(c4nc5cc(Cl)ccc5o4)C[C@@]3(C)C2)c1	1890	5990	
Cc1ccc(-n2nccn2)c(C(=O)N2C[C@@H]3CN(c4nc5cc(C)ccc5o4)C[C@@H]3C2)c1	113	211	
O=C(c1cc(F)ccc1-n1nccn1)N1C[C@@H]2CN(c3nc4cc(Cl)ccc4o3)C[C@@H]2C1	1960	791	
O=C(c1cc(OC(F)(F)F)ccc1-n1nccn1)N1C[C@@H]2CN(c3nc4cc(Cl)ccc4o3)C[C@@H]2C1	502	1520	
Cc1ccc(-n2nccn2)c(C(=O)N2CCC3CN(c4nc5cc(Cl)ccc5o4)CC32)c1 (stereo not drawn)	2970	354	
O=C(c1ccccc1-n1nccn1)N1C[C@@H]2CN(c3nc4cc(Cl)ccc4o3)C[C@@H]2C1	489	238	
Cc1ccc(-n2nccn2)c(C(=O)N2C[C@@]3(F)CN(c4nc5cc(Cl)ccc5o4)C[C@@]3(F)C2)c1	759	639	IC50 [2]: > 30000 nM
Cc1ccc(-n2nccn2)c(C(=O)N2C[C@@H]3CN(c4nc5cc(F)ccc5o4)C[C@@H]3C2)c1	293	131	solubility thermodynamic [3]: < 2 µM; concentration at 0.3 h [4]: 1260 nM; concentration at 1 h [5]: 859 nM; concentration at 4 h [6]: 77 nM; Drug uptake (Brain [7]): 74 nmol/kg; Drug uptake (Brain [8]): 42 nmol/kg; Drug uptake (Brain [9]; BLD = below limit of detection): Bld; Kp at 0.5 h [10]: 0.06; Kp at 1 h [11]: 0.05
Cc1ccc(-n2nccn2)c(C(=O)N2CC3CCCN(c4nc5cc(Cl)ccc5o4)C3C2)c1 (stereo not drawn)	> 10000	> 10000	
Cc1ccc(-n2nccn2)c(C(=O)N2CCCC3CN(c4nc5cc(Cl)ccc5o4)CC32)c1 (stereo not drawn)	> 10000	> 10000	
Cc1ccc(-n2nccn2)c(C(=O)N2C[C@@H]3CN(c4ncnc5ccccc45)C[C@@H]3C2)c1	> 10000	1680	
Cc1ccc(-n2nccn2)c(C(=O)N2CC3CN(c4nc5cc(Cl)ccc5o4)CC3(C)C2)c1 (stereo not drawn)	736	1090	
Cc1ccc(-n2nccn2)c(C(=O)N2C[C@@H]3CN(c4ncc5cc(F)ccc5n4)C[C@@H]3C2)c1	216	108	solubility thermodynamic [3]: 2.6 µM (≈ 1.15 µg/mL); concentration at 0.3 h [4]: 567 nM; concentration at 1 h [5]: 328 nM; concentration at 4 h [6]: 24 nM; Drug uptake (Brain [7]): 80 nmol/kg; Drug uptake (Brain [8]): 43 nmol/kg; Drug uptake (Brain [9]; BLD = below limit of detection): Bld; Kp at 0.5 h [10]: 0.14; Kp at 1 h [11]: 0.13
Cc1ccc(-n2nccn2)c(C(=O)N2C[C@@H]3CN(c4nc(C)c(C)c(C)n4)C[C@@H]3C2)c1	> 10000	4850	
Cc1ccc(-n2nccn2)c(C(=O)N2C[C@@H]3CN(c4nc(-c5cccc(Cl)c5)co4)C[C@@H]3C2)c1	1010	2790	
Cc1ccc(-n2nccn2)c(C(=O)N2C[C@@H]3CN(c4nc5cc(C(F)(F)F)ccc5o4)C[C@@H]3C2)c1	1780	508	
COc1ccc2oc(N3C[C@H]4CN(C(=O)c5cc(C)ccc5-n5nccn5)C[C@H]4C3)nc2c1	401	311	
COc1ccc(-n2nccn2)c(C(=O)N2C[C@@H]3CN(c4nc5cc(Cl)ccc5o4)C[C@@H]3C2)c1	517	387	
Cc1ccc(-n2nccn2)c(C(=O)N2CCN(c3nc4cc(Cl)ccc4o3)CC[C@H]2C)c1 [SUVOREXANT]			Time (Rattus norvegicus [12]): 46.9 min; Time (Rattus norvegicus [13]): 13.6 min; Time (Rattus norvegicus [14]): 33.5 min
Cc1ccc(-n2nccn2)c(C(=O)N2C[C@H]3CN(Cc4nc5cc(Cl)ccc5o4)C[C@H]3C2)c1	3240	1820	
Cc1ccc(-n2nccn2)c(C(=O)N2CC3CCN(c4nc5cc(Cl)ccc5o4)C3C2)c1 (stereo not drawn)	> 10000	> 10000	
Cc1ccc(-n2nccn2)c(C(=O)N2C[C@@]3(F)CN(c4nc5ccccc5o4)C[C@@]3(F)C2)c1	908	575	IC50 [2]: > 30000 nM
Cc1ccc(-n2nccn2)c(C(=O)N2C[C@@H]3CN(c4nc5ccccc5n4C)C[C@@H]3C2)c1	1640	775	
Cc1ccc(-n2nccn2)c(C(=O)N2C[C@@H]3CN(c4nc5cc(Cl)ccc5o4)C[C@@H]3C2)c1	226	206	solubility thermodynamic [3]: < 2 µM; concentration at 0.3 h [4]: 3370 nM; concentration at 1 h [5]: 2500 nM; concentration at 4 h [6]: 409 nM; Drug uptake (Brain [7]): 643 nmol/kg; Drug uptake (Brain [8]): 376 nmol/kg; Drug uptake (Brain [9]): 111 nmol/kg; Kp at 0.5 h [10]: 0.19; Kp at 1 h [11]: 0.15; Kp at 4 h [15]: 0.27; clearance [16]: 32 mL/min/kg; half-life [17]: 43.8 min; AUC [18]: 5.4 µM·h; Cmax [19]: 2100 nM; Tmax [20]: 25.2 min; bioavailability [21]: 27%
